These results are taken from patent US7157453B2, “Urea substituted imidazoquinolines” (3M Innovation Properties Company, priority 1999, dated 2007).

Assay [1] concerns interferon (α). Description: Cytokine Induction in Human Cells: interferon (α) by ELISA. It is filed as cell-based. The conditions noted are these: PBMC; human PBMCs, incubated 18 to 24 hours, lowest concentration found to induce interferon. From the text:
(§1) An in vitro human blood cell system was used to assess cytokine induction by compounds of the invention. Activity is based on the measurement of interferon and tumor necrosis factor (α) (IFN and TNF, respectively) secreted into culture media as described by Testerman et. al. In “Cytokine Induction by the Immunomodulators Imiquimod and S-27609”, Journal of Leukocyte Biology, 58, 365–372 (September, 1995).
(§2) Whole blood is collected by venipuncture into EDTA vacutainer tubes from healthy human donors. Peripheral blood mononuclear cells (PBMCs) are separated from whole blood by density gradient centrifugation using Histopaque®-1077 (Sigma Chemicals, St. Louis, Mo.). The PBMCs are suspended at 3–4×10^6 cells/mL in RPMI 1640 medium containing 10% fetal bovine serum, 2 mM L-glutamine and 1% penicillin/streptomycin solution (RPMI complete). The PBMC suspension is added to 48 well flat bottom sterile tissue culture plates (Costar, Cambridge, Mass. or Becton Dickinson Labware, Lincoln Park, N.J.) containing an equal volume of RPMI complete media containing test compound.
(§3) The compounds are solubilized in dimethyl sulfoxide (DMSO). The DMSO concentration should not exceed a final concentration of 1% for addition to the culture wells.
(§4) The solution of test compound is added at 60 μM to the first well containing RPMI complete and serial (three fold or ten fold) dilutions are made. The PBMC suspension is then added to the wells in an equal volume, bringing the test compound concentrations to the desired range. The final concentration of PBMC suspension is 1.5–2×10^6 cells/mL. The plates are covered with sterile plastic lids, mixed gently and then incubated for 18 to 24 hours at 37° C. in a 5% carbon dioxide atmosphere.
(§5) Following incubation the plates are centrifuged for 5–10 minutes at 1000 rpm (˜200×g) at 4° C. The cell culture supernatant is removed with a sterile polypropylene pipet and transferred to sterile polypropylene tubes. Samples are maintained at −30 to −70° C. until analysis. The samples are analyzed for interferon (α) and tumor necrosis factor (α) by ELISA
Interferon (α) concentration is determined by ELISA using a Human Multi-Species kit from PBL Biomedical Laboratories, New Brunswick, N.J.
(§6) The table below lists the lowest concentration found to induce interferon and the lowest concentration found to induce tumor necrosis factor for each compound.

Assay [2] has as its system tumor necrosis factor (α). Description: Cytokine Induction in Human Cells: tumor necrosis factor (α) by ELISA. It is filed as cell-based. To be noted: PBMC; human PBMCs, incubated 18 to 24 hours, lowest concentration found to induce tumor necrosis factor.
Description: as §1, §2, §3, §4, §5
Tumor necrosis factor (α) (TNF) concentration is determined using ELISA kits available from Genzyme, Cambridge, Mass.; R&D Systems, Minneapolis, Minn.; or Pharmingen, San Diego, Calif.
as §6

As to `CCCCc1nc2c(N)nc3ccccc3c2n1CCCCNC(=O)NCc1cccc(C)c1` [Example 83], the figures for the minimal effective concentration in assay [1] and in assay [2] were 0.1 µM and 1 µM, respectively.

As for `Nc1nc2ccccc2c2c1ncn2CCCCNC(=O)Nc1cc(C(F)(F)F)cc(C(F)(F)F)c1` [Example 23], the minimal effective concentration in assay [1] was > 30 µM; in assay [2] it was 10 µM.

For the compound `CCCCc1nc2c(N)nc3ccccc3c2n1CCCCNC(=O)Nc1ccccc1OC` [Example 85], the results for the minimal effective concentration in assay [1] and in assay [2] were 0.001 µM and 0.1 µM, respectively.

As to `CC(C)NC(=O)NCCCCn1cnc2c(N)nc3ccccc3c21` [Example 19], the minimal effective concentration in assay [1] was determined as 1.11 µM; in assay [2] it was 30 µM.

Take `CSc1ccc(NC(=O)NCCCCn2cnc3c(N)nc4ccccc4c32)cc1` [Example 47]: the values for the minimal effective concentration in assay [1] and in assay [2] were 3.33 µM and 10 µM, respectively.

As for `CCCCc1nc2c(N)nc3ccccc3c2n1CCNC(=O)NCc1ccccc1` [Example 55], the minimal effective concentration in assay [1] and in assay [2] was 1 µM in each case.

Consider `CCCCc1nc2c(N)nc3ccccc3c2n1CCCNC(=O)Nc1ccccc1` [Example 146, N-[3-(4-amino-2-butyl-1H-imidazo[4,5-c]quinolin-1-yl)propyl]-N′-phenylurea], for which the minimal effective concentration was determined as 0.01 µM in assay [1] and 0.12 µM in assay [2].

Take `CCCCc1nc2c(N)nc3ccccc3c2n1CCNC(=O)Nc1ccc(Oc2ccccc2)cc1` [Example 54]: the minimal effective concentration in assay [1] is > 10 µM; in assay [2], 10 µM.

As for `CCCCOC(=O)c1ccc(NC(=O)NCCCCn2cnc3c(N)nc4ccccc4c32)cc1` [Example 50], the minimal effective concentration in assay [1] and in assay [2] was > 30 µM throughout.

On to `COCCc1nc2c(N)nc3c(c2n1CCCCNC(=O)Nc1ccccc1)CCCC3` [Example 136], for which the results for the minimal effective concentration in assay [1] and in assay [2] were 0.0001 µM and 1 µM, respectively.

With `CC(C)(C)NC(=O)NCCCCn1cnc2c(N)nc3ccccc3c21` [Example 20], the minimal effective concentration in assay [1] is 1.11 µM; in assay [2], 30 µM.

In the case of `COCCc1nc2c(N)nc3ccccc3c2n1CCCCNC(=O)Nc1ccc(C(F)(F)F)cc1` [Example 117], the minimal effective concentration in assay [1] and in assay [2] was 10 µM each time.

For `COCCc1nc2c(N)nc3ccccc3c2n1CCCCNC(=O)Nc1ccc(Cl)cc1` [Example 113], the minimal effective concentration amounted to 0.0001 µM in assay [1] and 1 µM in assay [2].

For `COCCc1nc2c(N)nc3ccccc3c2n1CCCCNC(=O)NC1CCCCC1` [Example 105], the minimal effective concentration turned out to be 0.001 µM in assay [1] and 1 µM in assay [2].

For `COCCc1nc2c(N)nc3ccccc3c2n1CCCCNC(=O)N[C@H](C)c1ccccc1` [Example 110], the minimal effective concentration in assay [1] is 0.001 µM; in assay [2] it was 1 µM.

Consider `COCCc1nc2c(N)nc3ccccc3c2n1CCCCCCCCNC(=O)Nc1ccccc1` [Example 145, N-{8-[4-amino-2-(2-methoxyethyl)-1H-imidazo[4,5-c]quinolin-1-yl]octyl}-N′-phenylurea], for which the minimal effective concentration in assay [1] is 0.01 µM; in assay [2], 0.04 µM.

In the case of `CC(C)c1ccc(NC(=O)NCCCCn2cnc3c(N)nc4ccccc4c32)cc1` [Example 27], the minimal effective concentration in assay [1] and in assay [2] was > 30 µM in each case.

Consider `COCCc1nc2c(N)nc3ccccc3c2n1CCCCNC(=O)Nc1ccc([N+](=O)[O-])cc1` [Example 115], for which the minimal effective concentration in assay [1] was determined as 0.0001 µM; in assay [2], 1 µM.

For the compound `CCCCc1nc2c(N)nc3ccccc3c2n1CCCCNC(=O)NCCC` [Example 71], the minimal effective concentration in assay [1] was 0.001 µM; in assay [2], 1 µM.

As for `Nc1nc2ccccc2c2c1ncn2CCCCNC(=O)Nc1ccccc1[N+](=O)[O-]` [Example 41], the minimal effective concentration in assay [1] stood at 1.11 µM; in assay [2], 10 µM.
